Consider nine compounds from patent US12059425B2, “Heterocyclic compounds and uses thereof” (Kumquat Biosciences Inc., priority 2022, dated 2024).

One test concerns GP2D cells. Briefly: Ras cellular assay, cell proliferation GP2D. The class given is cell-based. In short, it runs like this: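 GP2D cells (G12D Ras mutant) seeded (e.g., 800/well) and treated the next day with a dilution series (e.g., 9-point, 3-fold). After approximately 5 days, viability measured by CellTiter-Glo luminescence; IC50 from four-parameter fit.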
The test system of another test is A549 cells. Briefly: Ras cellular assay, cell proliferation A549. Format: cell-based. The note with it: Homo sapiens. As to the method: (§1) For example, this assay can be also used to assess selective growth inhibition of a mutant Ras protein relative to a wildtype, or relative to a different mutant Ras protein.
A549 (ATCC CRL-185) and LS123 (ATCC CRL-255) cell lines comprise a G12S mutation and can be used to assess Ras cellular signaling in vitro, e.g., in response to treatment with a compound described herein. A549 culture medium is prepared with RPMI-1640 and 10% heat-inactivated FBS. LS123 culture medium is prepared with RPMI-1640 and 10% heat-inactivated FBS. A CellTiter-Glo (CTG) luminescent based assay (Promega) is used to assess growth of the cells, as a measurement of the ability of the compounds herein to inhibit Ras signaling in the cells. The cells (e.g., 800 per well) are seeded in their respective culture medium in standard tissue culture-treated 384-well format plates (Falcon #08-772-116) or ultra-low attachment surface 384-well format plates (S-Bio #MS-9384WZ). The day after plating, cells are treated with a dilution series (e.g., a 10 point, 3-fold dilution series) of the compounds herein (e.g., approximately 40 μL final volume per well). Cell viability can be monitored (e.g., approximately 6 days later) according to the manufacturer's recommended instructions, where CellTiter-Glo reagent is added (e.g., approximately 10 μL), vigorously mixed, covered, and placed on a plate shaker (e.g., approximately for 20 min) to ensure sufficient cell lysis prior to assessment of luminescent signal. The IC50 values are determined using the four parameter fit. The resulting IC50 value is a measurement of the ability of the test compound to reduce cell growth of Ras-driven cells (e.g., tumor cell lines) in vitro and/or in vivo.

The target in the next test is T1, K-Ras G12V (Homo sapiens, UniProt P01116, G12V).
T1 construct: made in house; host or cells: E. coli, e.g. BL21 (DE3)
T1 sequence (P01116 1-188 isoform P01116-2 G12V): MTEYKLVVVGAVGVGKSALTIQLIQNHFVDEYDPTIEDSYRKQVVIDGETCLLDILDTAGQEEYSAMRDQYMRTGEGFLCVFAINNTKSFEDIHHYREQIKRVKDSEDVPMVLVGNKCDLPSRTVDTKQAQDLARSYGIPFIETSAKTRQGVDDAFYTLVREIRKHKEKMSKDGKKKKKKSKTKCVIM
Briefly: PPI-HTRF assay, K-Ras G12V / SOS1 interaction. Format: biochemical. The note with it: HTRF, K-Ras G12V; read-out: PPI-HTRF-5 nM (K-Ras G12V IC50). In short, it runs like this: (§2)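 GST-tagged K-Ras (G12D, G12V, G12S or wildtype) with anti-GST-Eu(K) donor was mixed with His-hSOS1 and anti-6His-XL665 acceptor in HEPES pH 7.4 buffer with NaCl, DTT, BSA and Igepal. After about 10 min, HTRF was read (ex 337 nm, em 620/665 nm). IC50 came from the 665/620 ratio, with duplicates from 10 μM down to 0.01 μM.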

A further test deals with T2, wildtype K-Ras (Homo sapiens, UniProt P01116).
T2 construct: made in house; host or cells: E. coli, e.g. BL21 (DE3)
T2 sequence (P01116 1-188 isoform P01116-2): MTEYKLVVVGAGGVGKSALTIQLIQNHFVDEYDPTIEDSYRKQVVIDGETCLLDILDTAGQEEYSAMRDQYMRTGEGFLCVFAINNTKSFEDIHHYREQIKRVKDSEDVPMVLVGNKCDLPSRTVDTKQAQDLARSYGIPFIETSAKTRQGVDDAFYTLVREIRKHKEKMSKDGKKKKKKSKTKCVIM
The experiment in a line: PPI-HTRF assay, wildtype K-Ras / SOS1 interaction. Format: biochemical. The following applies: HTRF, K-Ras wt; read-out: PPI-HTRF-5 nM (K-Ras wt IC50). In short, it runs like this:
as §2
A general note: TR-FRET usually uses a lanthanide donor and a delayed reading to cut background.

Another test deals with SW620 cells. The experiment in a line: Ras cellular assay, cell proliferation SW620. The class given is cell-based. The following applies: Homo sapiens, SW-620.
Description: as §1

The target of another test is T3, K-Ras G12D (Homo sapiens, UniProt P01116, G12D).
T3 construct: made in house; host or cells: E. coli, e.g. BL21 (DE3)
T3 sequence (P01116 1-188 isoform P01116-2 G12D): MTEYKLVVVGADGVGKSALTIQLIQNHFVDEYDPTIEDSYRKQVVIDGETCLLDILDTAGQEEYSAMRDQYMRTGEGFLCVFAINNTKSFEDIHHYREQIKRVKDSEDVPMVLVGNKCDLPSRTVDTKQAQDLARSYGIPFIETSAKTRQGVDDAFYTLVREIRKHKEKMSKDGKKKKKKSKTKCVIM
The experiment in a line: PPI-HTRF assay, K-Ras G12D / SOS1 interaction. The class given is biochemical. The following applies: HTRF, K-Ras G12D; read-out: PPI-HTRF-5 nM (K-Ras G12D IC50). In short, it runs like this: as §2

Another test concerns the target T4, K-Ras G12S (Homo sapiens, UniProt P01116, G12S).
T4 construct: made in house; host or cells: E. coli, e.g. BL21 (DE3)
Briefly: PPI-HTRF assay, K-Ras G12S / SOS1 interaction. The following applies: read-out: PPI-HTRF-5 nM (K-Ras G12S IC50). The class given is biochemical. The method, boiled down: as §2

T4 sequence (P01116 1-188 isoform P01116-2 G12S): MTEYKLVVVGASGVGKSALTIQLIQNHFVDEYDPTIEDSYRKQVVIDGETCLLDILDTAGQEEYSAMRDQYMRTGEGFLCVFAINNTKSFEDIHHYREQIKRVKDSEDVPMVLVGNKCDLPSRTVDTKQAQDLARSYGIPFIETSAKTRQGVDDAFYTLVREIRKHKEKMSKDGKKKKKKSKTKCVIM

What is called IC50 is the concentration needed to halve the response being measured. Turning to `N#Cc1c(N)sc2c(F)ccc(-c3c(Cl)c4c5c(nc(OC[C@@]67CCCN6C[C@H](F)C7)nc5c3F)N3CCC[C@H]3CCO4)c12` [compound 115, 2-amino-4-((13aS)-10-chloro-8-fluoro-6-(((2R,7aS)-2-fluorotetrahydro-1H-pyrrolizin-7a(5H)-yl)methoxy)-1,2,3,12,13,13a-hexahydropyrrolo[1′,2′:5,6][1,5]oxazocino [4,3,2-de]quinazolin-9-yl)-7-fluorobenzo[b]thiophene-3-carbonitrile], the IC50 with GP2D cells, in the test on A549 cells, on K-Ras G12V, at wildtype K-Ras, in the test on SW620 cells and on K-Ras G12D was less than 5 µM each time. At K-Ras G12S, the IC50 is less than 5 µM.

As to `N#Cc1c(N)sc2c(F)ccc(-c3c(Cl)c4c5c(nc(OC[C@@]67CCCN6C[C@H](F)C7)nc5c3F)N3CCOCC3CO4)c12` (stereo partly drawn) [compound 116, 2-amino-4-(6-chloro-4-fluoro-2-(((2R,7aS)-2-fluorotetrahydro-1H-pyrrolizin-7a(5H)-yl)methoxy)-8a,9,11,12-tetrahydro-8H-[1,4]oxazino[3′,4′:3,4][1,4]oxazepino[5,6,7-de]quinazolin-5-yl)-7-fluorobenzo[b]thiophene-3-carbonitrile], the half-maximal inhibitory concentration (IC50) with GP2D cells, in the test on A549 cells, on K-Ras G12V, on wildtype K-Ras, in the test with SW620 cells and on K-Ras G12D was less than 5 µM throughout. Also, the half-inhibitory concentration (IC50) on K-Ras G12S was less than 5 µM.

As to `CN1c2nc(OC[C@@]34CCCN3C[C@H](F)C4)nc3c(F)c(-c4ccc(F)c5sc(N)c(C#N)c45)c(Cl)c(c23)OCC2CN(C(=O)C(F)F)CC21` (stereo partly drawn) [compound 120, 2-amino-4-(6-chloro-10-(2,2-difluoroacetyl)-4-fluoro-2-(((2R,7aS)-2-fluorotetrahydro-1H-pyrrolizin-7a(5H)-yl)methoxy)-12-methyl-8a,9,10,11,11a,12-hexahydro-8H-pyrrolo[3′,4′:6,7][1,5]oxazocino[4,3,2-de]quinazolin-5-yl)-7-fluorobenzo[b]thiophene-3-carbonitrile], the IC50 with GP2D cells is less than 5 µM; in the test with A549 cells, more than 5 µM; on K-Ras G12V, less than 5 µM; on wildtype K-Ras, less than 5 µM; with SW620 cells it was less than 5 µM; at K-Ras G12D it was less than 5 µM. Besides, at K-Ras G12S, the half-maximal inhibitory concentration (IC50) was less than 5 µM.

In the case of `COCC1CCC2COc3c(Cl)c(-c4ccc(F)c5sc(N)c(C#N)c45)c(F)c4nc(OCC56CCCN5C[C@H](F)C6)nc(c34)N2C1` (stereo partly drawn) [compound 121, 2-amino-4-(6-chloro-4-fluoro-2-(((2R)-2-fluorotetrahydro-1H-pyrrolizin-7a(5H)-yl)methoxy)-11-(methoxymethyl)-8,8a,9,10,11,12-hexahydropyrido[2′,1′:3,4][1,4]oxazepino [5,6,7-de]quinazolin-5-yl)-7-fluorobenzo[b]thiophene-3-carbonitrile], the half-maximal inhibitory concentration (IC50) with GP2D cells, in the test with A549 cells, on K-Ras G12V, at wildtype K-Ras, with SW620 cells and at K-Ras G12D was less than 5 µM throughout. Besides, at K-Ras G12S, the half-maximal inhibitory concentration (IC50) was less than 5 µM.

Consider `CN1c2nc(OC[C@@]34CCCN3C[C@H](F)C4)nc3c(F)c(-c4ccc(F)c5sc(N)c(C#N)c45)c(Cl)c(c23)OCC2CN(C(=O)[C@H]3CN3)CC21` (stereo partly drawn) [compound 124, 2-amino-4-(10-((R)-aziridine-2-carbonyl)-6-chloro-4-fluoro-2-(((2R,7aS)-2-fluorotetrahydro-1H-pyrrolizin-7a(5H)-yl)methoxy)-12-methyl-8a,9,10,11,11a,12-hexahydro-8H-pyrrolo[3′,4′:6,7][1,5]oxazocino[4,3,2-de]quinazolin-5-yl)-7-fluorobenzo[b]thiophene-3-carbonitrile], for which the half-maximal inhibitory concentration (IC50) with GP2D cells is less than 5 µM; with A549 cells, more than 5 µM; on K-Ras G12V, less than 5 µM; on wildtype K-Ras, less than 5 µM; with SW620 cells it was less than 5 µM; at K-Ras G12D it was less than 5 µM. At K-Ras G12S, the IC50 was less than 5 µM.

On to `N#Cc1c(N)sc2c(F)ccc(-c3c(Cl)c4c5c(nc(OC[C@@]67CCCN6C[C@H](F)C7)nc5c3F)N(C3CC3)C3COCC3CO4)c12` (stereo partly drawn) [compound 125, 2-amino-4-(6-chloro-12-cyclopropyl-4-fluoro-2-(((2R,7aS)-2-fluorotetrahydro-1H-pyrrolizin-7a(5H)-yl)methoxy)-8a,9,11a,12-tetrahydro-8H,11H-furo[3′,4′:6,7][1,5]oxazocino[4,3,2-de]quinazolin-5-yl)-7-fluorobenzo[b]thiophene-3-carbonitrile], for which the 50% inhibitory concentration (IC50) with GP2D cells, with A549 cells, at K-Ras G12V, on wildtype K-Ras, in the test on SW620 cells and at K-Ras G12D was less than 5 µM each time. Also, the half-maximal inhibitory concentration (IC50) on K-Ras G12S is less than 5 µM.

On to `CN1c2nc(OC[C@@]34CCCN3C[C@H](F)C4)nc3c(F)c(-c4ccc(F)c5sc(N)c(C#N)c45)c(Cl)c(c23)OC2CN(C=O)CC21` (stereo partly drawn) [compound 126, 2-amino-4-(6-chloro-4-fluoro-2-(((2R,7aS)-2-fluorotetrahydro-1H-pyrrolizin-7a(5H)-yl)methoxy)-9-formyl-11-methyl-7a,8,9,10,10a,11-hexahydropyrrolo[3′,4′:2,3][1,4]oxazepino[5,6,7-de]quinazolin-5-yl)-7-fluorobenzo[b]thiophene-3-carbonitrile], for which the IC50 in the test on GP2D cells, in the test on A549 cells, on K-Ras G12V, on wildtype K-Ras, in the test on SW620 cells and on K-Ras G12D was less than 5 µM throughout. The IC50 at K-Ras G12S is less than 5 µM.

For `N#Cc1c(N)sc2c(F)ccc(-c3c(Cl)c4c5c(nc(OC[C@@]67CCCN6C[C@H](F)C7)nc5c3F)N3CC5(CCCC3CCO4)CN(C(=O)C3CC3(F)F)C5)c12` (stereo partly drawn) [compound 127, 2-amino-4-(3-chloro-1′-(2,2-difluorocyclopropane-1-carbonyl)-1-fluoro-14-(((2R,7aS)-2-fluorotetrahydro-1H-pyrrolizin-7a(5H)-yl)methoxy)-5,6,6a,7,8,9-hexahydro-11H-spiro[azepino[1′,2′:5,6][1,5]oxazocino[4,3,2-de]quinazoline-10,3′-azetidin]-2-yl)-7-fluorobenzo[b]thiophene-3-carbonitrile], the IC50 with GP2D cells was less than 5 µM; in the test with A549 cells, more than 5 µM; on K-Ras G12V, less than 5 µM; at wildtype K-Ras, less than 5 µM; with SW620 cells it was less than 5 µM; on K-Ras G12D it was less than 5 µM. Besides, the IC50 on K-Ras G12S was less than 5 µM.

For `N#Cc1c(N)sc2c(F)ccc(-c3c(Cl)c4c5c(nc(OCC67CCCN6C[C@H](F)C7)nc5c3F)N3CCC(O)CC3CO4)c12` (stereo partly drawn) [compound 132, 2-amino-4-(3-chloro-1-fluoro-12-(((2R,7aS)-2-fluorotetrahydro-1H-pyrrolizin-7a(5H)-yl)methoxy)-7-hydroxy-5,5a,6,7,8,9-hexahydropyrido[2′,1′:3,4][1,4]oxazepino[5,6,7-de]quinazolin-2-yl)-7-fluorobenzo[b]thiophene-3-carbonitrile], the half-maximal inhibitory concentration (IC50) in the test on GP2D cells, in the test with A549 cells, at K-Ras G12V, at wildtype K-Ras, in the test with SW620 cells and at K-Ras G12D was less than 5 µM each time. On K-Ras G12S, the IC50 is less than 5 µM.
